In patent US7306928B2, “Homogenous assay for enzymatic activity” (Pierce Biotechnology, Inc., priority 2002, dated 2007) one finds IC50 and IC50 of inhibition of PKA kinase activity (phosphorylation of Lissamine Rhodamine-labeled Kemptide, Fe(III) fluorescence quench readout) data, which are given here for two compounds.

By IC50 is commonly meant the midpoint of a concentration-inhibition curve.

For one assay, the target named is PP2A Phosphatase (Homo sapiens, UniProt P67775). Briefly: Okadaic acid PP2A phosphatase inhibition, Fe(III) fluorescence quench assay. Type of assay: biochemical. To be noted: PP2A 22 milli Units, 30 μM Lissamine Rhodamine phospho Kemptide, 60 minutes, 96-well; read-out: calculated IC50. The text has this: Okadaic Acid, another phosphatase inhibitor, solubilized in DMSO, was titrated in triplicate in phosphatase dilution buffer over 24 wells in white 96-well polystyrene COSTAR plate. […] The results are illustrated in FIG. 10.

In assay [1] the target is PKA (protein kinase A) catalytic unit, Promega. Briefly: cell-based or functional assay.

PP2A Phosphatase, sequence (P67775 whole entry): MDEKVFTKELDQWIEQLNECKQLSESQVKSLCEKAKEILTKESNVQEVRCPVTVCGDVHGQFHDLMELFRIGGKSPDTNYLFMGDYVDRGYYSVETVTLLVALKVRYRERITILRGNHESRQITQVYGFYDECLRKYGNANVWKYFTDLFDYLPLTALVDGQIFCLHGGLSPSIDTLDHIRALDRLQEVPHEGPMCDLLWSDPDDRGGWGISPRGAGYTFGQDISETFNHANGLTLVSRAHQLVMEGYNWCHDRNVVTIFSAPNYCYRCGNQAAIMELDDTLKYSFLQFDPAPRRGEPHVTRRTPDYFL

As to `C=C1[C@@H](O)[C@@H]2O[C@]3(CC[C@H](/C=C/[C@@H](C)[C@@H]4CC(C)=C[C@@]5(O[C@H](C[C@@](C)(O)C(=O)O)CC[C@H]5O)O4)O3)CC[C@H]2O[C@@H]1[C@@H](O)C[C@H](C)[C@H]1O[C@@]2(CCCCO2)CC[C@H]1C` [Okadaic Acid], on PP2A Phosphatase, the IC50 is 1.5 nM.
The compound “PKI, a known synthetic peptide inhibitor of PKA” came in with an IC50 of inhibition of PKA kinase activity (phosphorylation of Lissamine Rhodamine-labeled Kemptide, Fe(III) fluorescence quench readout) in assay [1] of 2.6 nM.
